According to PMC3320733 (International Journal of Antimicrobial Agents, 2012):
Where no end group is shown, it is not given here.

How the values were obtained:
Format in all cases: cell-based
[1] = test system: Pseudomonas aeruginosa PAO1
Bacillus subtilis 168 = test system: Bacillus subtilis 168
human red blood cells = assay: Haemolytic effects on human red blood cells; conditions: 1 h

Substance | MIC Pseudomonas aeruginosa [1] [µM] | MIC Bacillus subtilis (Bacillus subtilis 168) [µM] | HL50 (concentration at which 50% of red blood cells were lysed) (human red blood cells) [µM]
FFGKVLKLIRKIF-NH2 [DASamP1] | >100 | >100 | 25
FFHHIFRGIVHVGKTIHRLVTG [Piscidin 1] [listing 1 of 2 here] | 50 | 12.5 | 
FFHHIFRGIVHVGKTIHRLVTG [Piscidin 1] [listing 2 of 2 here] |  |  | 20
GFKDLLKGAAKALVKTVLF-NH2 [Ascaphin-8] | 12.5 | 6.25 | 45
GLLGLLGSVVSHVVPAIVGHF-NH2 [Maculatin 1.3] [listing 1 of 2 here] | >100 | 25 | 
GLLGLLGSVVSHVVPAIVGHF-NH2 [Maculatin 1.3] [listing 2 of 2 here] |  |  | 25
